Values after ≈ are worked out from the molar mass of the structure shown.
System: Candida albicans
Assay: Antifungal activity against fluconazole-resistant Candida albicans TIMM3164
Type: functional
Details: not given

SMILES | MIC [µg/mL]
C[C@@H](S[C@H]1CO[C@H](/C=C/C=C/c2ccc(C#N)cc2F)OC1)[C@](O)(Cn1cncn1)c1ccc(F)cc1F [EMBECONAZOLE] | 0.063 (≈ 0.116 µM)
CCC(C)n1ncn(-c2ccc(N3CCN(c4ccc(OCC5COC(Cn6cncn6)(c6ccc(Cl)cc6Cl)O5)cc4)CC3)cc2)c1=O (stereo unspecified) [ITRACONAZOLE] | 0.25 (≈ 0.354 µM)
C[C@@H](S[C@H]1CO[C@H](c2ccc(C(=O)Nc3ccc(Br)cc3)cc2)OC1)[C@](O)(Cn1cncn1)c1ccc(F)cc1F | 0.016 (≈ 0.0248 µM)
C[C@@H](S[C@H]1CO[C@H](c2ccc(C(=O)Nc3nccs3)cc2)OC1)[C@](O)(Cn1cncn1)c1ccc(F)cc1F | 0.031 (≈ 0.054 µM)
C[C@@H](S[C@H]1CO[C@H](c2ccc(C(=O)N3CCN(c4ccccc4)CC3)cc2)OC1)[C@](O)(Cn1cncn1)c1ccc(F)cc1F | 0.125 (≈ 0.197 µM)
C[C@@H](S[C@H]1CO[C@H](c2ccc(C(=O)Nc3ccc(C#N)c(Cl)c3)cc2)OC1)[C@](O)(Cn1cncn1)c1ccc(F)cc1F | 0.016 (≈ 0.0256 µM)
C[C@@H](S[C@H]1CO[C@H](c2ccc(C(=O)Nc3ccc(O)cc3)cc2)OC1)[C@](O)(Cn1cncn1)c1ccc(F)cc1F | 0.063 (≈ 0.108 µM)

System: Pichia kudriavzevii
Assay: Antifungal activity against Candida krusei ATCC 6258
Type: functional
Details: not given

SMILES | MIC [µg/mL]
C[C@@H](S[C@H]1CO[C@H](/C=C/C=C/c2ccc(C#N)cc2F)OC1)[C@](O)(Cn1cncn1)c1ccc(F)cc1F [EMBECONAZOLE] | 0.25 (≈ 0.461 µM)
CCC(C)n1ncn(-c2ccc(N3CCN(c4ccc(OCC5COC(Cn6cncn6)(c6ccc(Cl)cc6Cl)O5)cc4)CC3)cc2)c1=O (stereo unspecified) [ITRACONAZOLE] | 0.5 (≈ 0.709 µM)

System: Aspergillus fumigatus
Assay: Antifungal activity against Aspergillus fumigatus ATCC 26430
Type: functional
Details: not given

SMILES | MIC [µg/mL]
C[C@@H](S[C@H]1CO[C@H](/C=C/C=C/c2ccc(C#N)cc2F)OC1)[C@](O)(Cn1cncn1)c1ccc(F)cc1F [EMBECONAZOLE] | 0.063 (≈ 0.116 µM)
CCC(C)n1ncn(-c2ccc(N3CCN(c4ccc(OCC5COC(Cn6cncn6)(c6ccc(Cl)cc6Cl)O5)cc4)CC3)cc2)c1=O (stereo unspecified) [ITRACONAZOLE] | 0.25 (≈ 0.354 µM)

System: Candida albicans
Assay: Antifungal activity against Candida albicans ATCC 24433
Type: functional
Details: not given

SMILES | MIC [µg/mL]
C[C@@H](S[C@H]1CO[C@H](/C=C/C=C/c2ccc(C#N)cc2F)OC1)[C@](O)(Cn1cncn1)c1ccc(F)cc1F [EMBECONAZOLE] | 0.016 (≈ 0.0295 µM)
CCC(C)n1ncn(-c2ccc(N3CCN(c4ccc(OCC5COC(Cn6cncn6)(c6ccc(Cl)cc6Cl)O5)cc4)CC3)cc2)c1=O (stereo unspecified) [ITRACONAZOLE] | 0.125 (≈ 0.177 µM)

System: not listed separately
Assay: Chemical stability assessed as half life in HCl
Type: physicochemical
Details: not given

SMILES | half-life [min]
C[C@@H](S[C@H]1CO[C@H](/C=C/C=C/c2ccc(C#N)cc2F)OC1)[C@](O)(Cn1cncn1)c1ccc(F)cc1F [EMBECONAZOLE] | 6.4

System: Aspergillus flavus
Assay: Antifungal activity against Aspergillus flavus SANK 18497
Type: functional
Details: not given

SMILES | MIC [µg/mL]
C[C@@H](S[C@H]1CO[C@H](/C=C/C=C/c2ccc(C#N)cc2F)OC1)[C@](O)(Cn1cncn1)c1ccc(F)cc1F [EMBECONAZOLE] | 0.25 (≈ 0.461 µM)
CCC(C)n1ncn(-c2ccc(N3CCN(c4ccc(OCC5COC(Cn6cncn6)(c6ccc(Cl)cc6Cl)O5)cc4)CC3)cc2)c1=O (stereo unspecified) [ITRACONAZOLE] | 0.5 (≈ 0.709 µM)
C[C@@H](S[C@H]1CO[C@H](c2ccc(C(=O)Nc3ccc(Br)cc3)cc2)OC1)[C@](O)(Cn1cncn1)c1ccc(F)cc1F | 0.125 (≈ 0.194 µM)
C[C@@H](S[C@H]1CO[C@H](c2ccc(C(=O)Nc3nccs3)cc2)OC1)[C@](O)(Cn1cncn1)c1ccc(F)cc1F | 0.5 (≈ 0.872 µM)
C[C@@H](S[C@H]1CO[C@H](c2ccc(C(=O)N3CCN(c4ccccc4)CC3)cc2)OC1)[C@](O)(Cn1cncn1)c1ccc(F)cc1F | 2 (≈ 3.15 µM)
C[C@@H](S[C@H]1CO[C@H](c2ccc(C(=O)Nc3ccc(C#N)c(Cl)c3)cc2)OC1)[C@](O)(Cn1cncn1)c1ccc(F)cc1F | 0.25 (≈ 0.399 µM)
C[C@@H](S[C@H]1CO[C@H](c2ccc(C(=O)Nc3ccc(O)cc3)cc2)OC1)[C@](O)(Cn1cncn1)c1ccc(F)cc1F | 1 (≈ 1.72 µM)

System: Candida albicans
Assay: Antifungal activity against Candida albicans SANK 51486
Type: functional
Details: not given

SMILES | MIC [µg/mL]
C[C@@H](S[C@H]1CO[C@H](/C=C/C=C/c2ccc(C#N)cc2F)OC1)[C@](O)(Cn1cncn1)c1ccc(F)cc1F [EMBECONAZOLE] | ≤ 0.008
CCC(C)n1ncn(-c2ccc(N3CCN(c4ccc(OCC5COC(Cn6cncn6)(c6ccc(Cl)cc6Cl)O5)cc4)CC3)cc2)c1=O (stereo unspecified) [ITRACONAZOLE] | 0.031 (≈ 0.0439 µM)
C[C@@H](S[C@H]1CO[C@H](c2ccc(C(=O)Nc3ccc(Br)cc3)cc2)OC1)[C@](O)(Cn1cncn1)c1ccc(F)cc1F | ≤ 0.008
C[C@@H](S[C@H]1CO[C@H](c2ccc(C(=O)Nc3nccs3)cc2)OC1)[C@](O)(Cn1cncn1)c1ccc(F)cc1F | ≤ 0.008
C[C@@H](S[C@H]1CO[C@H](c2ccc(C(=O)N3CCN(c4ccccc4)CC3)cc2)OC1)[C@](O)(Cn1cncn1)c1ccc(F)cc1F | 0.016 (≈ 0.0252 µM)
C[C@@H](S[C@H]1CO[C@H](c2ccc(C(=O)Nc3ccc(C#N)c(Cl)c3)cc2)OC1)[C@](O)(Cn1cncn1)c1ccc(F)cc1F | ≤ 0.008
C[C@@H](S[C@H]1CO[C@H](c2ccc(C(=O)Nc3ccc(O)cc3)cc2)OC1)[C@](O)(Cn1cncn1)c1ccc(F)cc1F | 0.016 (≈ 0.0275 µM)

System: not listed separately
Assay: Bioavailability in rat at 20 mg/kg, po
Type: ADME, organism-based
Details: in vivo

SMILES | bioavailability [%]
C[C@@H](S[C@H]1CO[C@H](/C=C/C=C/c2ccc(C#N)cc2F)OC1)[C@](O)(Cn1cncn1)c1ccc(F)cc1F [EMBECONAZOLE] | 113

System: Cryptococcus neoformans
Assay: Antifungal activity against Cryptococcus neoformans TIMM 1855
Type: functional
Details: not given

SMILES | MIC [µg/mL]
C[C@@H](S[C@H]1CO[C@H](/C=C/C=C/c2ccc(C#N)cc2F)OC1)[C@](O)(Cn1cncn1)c1ccc(F)cc1F [EMBECONAZOLE] | 0.016 (≈ 0.0295 µM)
CCC(C)n1ncn(-c2ccc(N3CCN(c4ccc(OCC5COC(Cn6cncn6)(c6ccc(Cl)cc6Cl)O5)cc4)CC3)cc2)c1=O (stereo unspecified) [ITRACONAZOLE] | 0.25 (≈ 0.354 µM)
C[C@@H](S[C@H]1CO[C@H](c2ccc(C(=O)Nc3ccc(Br)cc3)cc2)OC1)[C@](O)(Cn1cncn1)c1ccc(F)cc1F | 0.016 (≈ 0.0248 µM)
C[C@@H](S[C@H]1CO[C@H](c2ccc(C(=O)Nc3nccs3)cc2)OC1)[C@](O)(Cn1cncn1)c1ccc(F)cc1F | 0.125 (≈ 0.218 µM)
C[C@@H](S[C@H]1CO[C@H](c2ccc(C(=O)N3CCN(c4ccccc4)CC3)cc2)OC1)[C@](O)(Cn1cncn1)c1ccc(F)cc1F | 0.016 (≈ 0.0252 µM)
C[C@@H](S[C@H]1CO[C@H](c2ccc(C(=O)Nc3ccc(C#N)c(Cl)c3)cc2)OC1)[C@](O)(Cn1cncn1)c1ccc(F)cc1F | 0.031 (≈ 0.0495 µM)
C[C@@H](S[C@H]1CO[C@H](c2ccc(C(=O)Nc3ccc(O)cc3)cc2)OC1)[C@](O)(Cn1cncn1)c1ccc(F)cc1F | 0.25 (≈ 0.429 µM)

System: Nakaseomyces glabratus
Assay: Antifungal activity against Candida glabrata ATCC 90030
Type: functional
Details: not given

SMILES | MIC [µg/mL]
C[C@@H](S[C@H]1CO[C@H](/C=C/C=C/c2ccc(C#N)cc2F)OC1)[C@](O)(Cn1cncn1)c1ccc(F)cc1F [EMBECONAZOLE] | 1 (≈ 1.84 µM)
CCC(C)n1ncn(-c2ccc(N3CCN(c4ccc(OCC5COC(Cn6cncn6)(c6ccc(Cl)cc6Cl)O5)cc4)CC3)cc2)c1=O (stereo unspecified) [ITRACONAZOLE] | 1 (≈ 1.42 µM)
C[C@@H](S[C@H]1CO[C@H](c2ccc(C(=O)Nc3ccc(Br)cc3)cc2)OC1)[C@](O)(Cn1cncn1)c1ccc(F)cc1F | > 4
C[C@@H](S[C@H]1CO[C@H](c2ccc(C(=O)Nc3nccs3)cc2)OC1)[C@](O)(Cn1cncn1)c1ccc(F)cc1F | 2 (≈ 3.49 µM)
C[C@@H](S[C@H]1CO[C@H](c2ccc(C(=O)N3CCN(c4ccccc4)CC3)cc2)OC1)[C@](O)(Cn1cncn1)c1ccc(F)cc1F | 2 (≈ 3.15 µM)
C[C@@H](S[C@H]1CO[C@H](c2ccc(C(=O)Nc3ccc(C#N)c(Cl)c3)cc2)OC1)[C@](O)(Cn1cncn1)c1ccc(F)cc1F | 1 (≈ 1.6 µM)
C[C@@H](S[C@H]1CO[C@H](c2ccc(C(=O)Nc3ccc(O)cc3)cc2)OC1)[C@](O)(Cn1cncn1)c1ccc(F)cc1F | > 4

System: Candida tropicalis
Assay: Antifungal activity against Candida tropicalis ATCC 750
Type: functional
Details: not given

SMILES | MIC [µg/mL]
C[C@@H](S[C@H]1CO[C@H](/C=C/C=C/c2ccc(C#N)cc2F)OC1)[C@](O)(Cn1cncn1)c1ccc(F)cc1F [EMBECONAZOLE] | 0.25 (≈ 0.461 µM)
CCC(C)n1ncn(-c2ccc(N3CCN(c4ccc(OCC5COC(Cn6cncn6)(c6ccc(Cl)cc6Cl)O5)cc4)CC3)cc2)c1=O (stereo unspecified) [ITRACONAZOLE] | 0.5 (≈ 0.709 µM)
C[C@@H](S[C@H]1CO[C@H](c2ccc(C(=O)Nc3ccc(Br)cc3)cc2)OC1)[C@](O)(Cn1cncn1)c1ccc(F)cc1F | ≤ 0.008
C[C@@H](S[C@H]1CO[C@H](c2ccc(C(=O)Nc3nccs3)cc2)OC1)[C@](O)(Cn1cncn1)c1ccc(F)cc1F | 0.125 (≈ 0.218 µM)
C[C@@H](S[C@H]1CO[C@H](c2ccc(C(=O)N3CCN(c4ccccc4)CC3)cc2)OC1)[C@](O)(Cn1cncn1)c1ccc(F)cc1F | 0.5 (≈ 0.786 µM)
C[C@@H](S[C@H]1CO[C@H](c2ccc(C(=O)Nc3ccc(C#N)c(Cl)c3)cc2)OC1)[C@](O)(Cn1cncn1)c1ccc(F)cc1F | 0.063 (≈ 0.101 µM)
C[C@@H](S[C@H]1CO[C@H](c2ccc(C(=O)Nc3ccc(O)cc3)cc2)OC1)[C@](O)(Cn1cncn1)c1ccc(F)cc1F | 0.25 (≈ 0.429 µM)

System: Candida albicans
Assay: Antifungal activity against Candida albicans ATCC 64550
Type: functional
Details: not given

SMILES | MIC [µg/mL]
C[C@@H](S[C@H]1CO[C@H](/C=C/C=C/c2ccc(C#N)cc2F)OC1)[C@](O)(Cn1cncn1)c1ccc(F)cc1F [EMBECONAZOLE] | 0.5 (≈ 0.922 µM)
CCC(C)n1ncn(-c2ccc(N3CCN(c4ccc(OCC5COC(Cn6cncn6)(c6ccc(Cl)cc6Cl)O5)cc4)CC3)cc2)c1=O (stereo unspecified) [ITRACONAZOLE] | 1 (≈ 1.42 µM)

System: Aspergillus fumigatus
Assay: Antifungal activity against Aspergillus fumigatus SANK 10569
Type: functional
Details: not given

SMILES | MIC [µg/mL]
C[C@@H](S[C@H]1CO[C@H](/C=C/C=C/c2ccc(C#N)cc2F)OC1)[C@](O)(Cn1cncn1)c1ccc(F)cc1F [EMBECONAZOLE] | 0.063 (≈ 0.116 µM)
CCC(C)n1ncn(-c2ccc(N3CCN(c4ccc(OCC5COC(Cn6cncn6)(c6ccc(Cl)cc6Cl)O5)cc4)CC3)cc2)c1=O (stereo unspecified) [ITRACONAZOLE] | 0.25 (≈ 0.354 µM)
C[C@@H](S[C@H]1CO[C@H](c2ccc(C(=O)Nc3ccc(Br)cc3)cc2)OC1)[C@](O)(Cn1cncn1)c1ccc(F)cc1F | 0.063 (≈ 0.0976 µM)
C[C@@H](S[C@H]1CO[C@H](c2ccc(C(=O)Nc3nccs3)cc2)OC1)[C@](O)(Cn1cncn1)c1ccc(F)cc1F | 0.063 (≈ 0.11 µM)
C[C@@H](S[C@H]1CO[C@H](c2ccc(C(=O)N3CCN(c4ccccc4)CC3)cc2)OC1)[C@](O)(Cn1cncn1)c1ccc(F)cc1F | 1 (≈ 1.57 µM)
C[C@@H](S[C@H]1CO[C@H](c2ccc(C(=O)Nc3ccc(C#N)c(Cl)c3)cc2)OC1)[C@](O)(Cn1cncn1)c1ccc(F)cc1F | 0.125 (≈ 0.2 µM)
C[C@@H](S[C@H]1CO[C@H](c2ccc(C(=O)Nc3ccc(O)cc3)cc2)OC1)[C@](O)(Cn1cncn1)c1ccc(F)cc1F | 0.5 (≈ 0.858 µM)

System: Candida parapsilosis
Assay: Antifungal activity against Candida parapsilosis ATCC 90018
Type: functional
Details: Lodderomyces parapsilosis

SMILES | MIC [µg/mL]
C[C@@H](S[C@H]1CO[C@H](/C=C/C=C/c2ccc(C#N)cc2F)OC1)[C@](O)(Cn1cncn1)c1ccc(F)cc1F [EMBECONAZOLE] | 0.016 (≈ 0.0295 µM)
CCC(C)n1ncn(-c2ccc(N3CCN(c4ccc(OCC5COC(Cn6cncn6)(c6ccc(Cl)cc6Cl)O5)cc4)CC3)cc2)c1=O (stereo unspecified) [ITRACONAZOLE] | 0.125 (≈ 0.177 µM)
